Source: ChEMBL document CHEMBL1201862, “PubChem BioAssay data set” (2004)
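1) Cells in 96-well plates. 2) Compound, 48 h, 5 concentrations. 3) Linear interpolation between surrounding doses. 4) Unreached endpoint = highest concentration. The concentration for 50% growth inhibition is given as GI50.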 Active and inactive are the calls of the source. Cut-off read from the data, not from the text of the source: active = GI50 up to about 1.1 µM and inactive = higher.

Columns and labels:
Assay in all cases: growth of human tumour cells (NCI), 48 h
CCRF-CEM = test system: CCRF-CEM
786-0 = test system: 786-0
MDA-MB-231 = test system: MDA-MB-231
ACHN = test system: ACHN
T47D = test system: T47D
RXF 393 = test system: RXF 393
MOLT-4 = test system: MOLT-4
SNB-19 = test system: SNB-19
SN12C = test system: SN12C
HCC 2998 = test system: HCC 2998
UACC-257 = test system: UACC-257
A498 = test system: A498
CAKI-1 = test system: CAKI-1
Malme-3M = test system: Malme-3M
SW-620 = test system: SW-620
NCI/ADR-RES = test system: NCI/ADR-RES
IGROV-1 = test system: IGROV-1
BT-549 = test system: BT-549
NCI-H522 = test system: NCI-H522
UACC-62 = test system: UACC-62
SR = test system: SR
DU-145 = test system: DU-145
A549 = test system: A549
HCT-15 = test system: HCT-15
TK-10 = test system: TK-10
OVCAR-4 = test system: OVCAR-4
SK-MEL-5 = test system: SK-MEL-5
COLO 205 = test system: COLO 205
SF-539 = test system: SF-539
HT-29 = test system: HT-29
U-251 = test system: U-251
OVCAR-8 = test system: OVCAR-8
UO-31 = test system: UO-31
MCF7 = test system: MCF7
SF-268 = test system: SF-268
OVCAR-3 = test system: OVCAR-3
PC-3 = test system: PC-3
HOP-62 = test system: HOP-62
Hs-578T = test system: Hs-578T
K562 = test system: K562
LOX IMVI = test system: LOX IMVI
OVCAR-5 = test system: OVCAR-5
SF-295 = test system: SF-295
MDA-N = test system: MDA-N
EKVX = test system: EKVX
M14 = test system: M14
HL-60 = test system: HL-60
HCT-116 = test system: HCT-116
KM12 = test system: KM12
SK-MEL-28 = test system: SK-MEL-28
HOP-92 = test system: HOP-92
NCI-H226 = test system: NCI-H226
RPMI-8226 = test system: RPMI-8226
SK-OV-3 = test system: SK-OV-3
NCI-H460 = test system: NCI-H460
MDA-MB-435 = test system: MDA-MB-435
SNB-75 = test system: SNB-75
SK-MEL-2 = test system: SK-MEL-2
NCI-H23 = test system: NCI-H23

In the case of `COc1ccc2[nH]c(S(=O)(=O)N3CC(CCl)c4ccc(N)cc43)cc2c1` (stereo not given), the GI50 (CCRF-CEM) is reported as 0.362 µM (active), the GI50 (786-0) is reported as 0.0771 µM (active) and the GI50 (MDA-MB-231) is reported as 0.239 µM (active). For the same compound, the GI50 (ACHN) was 8.91 µM (inactive), the GI50 (T47D) was 34.8 µM (inactive) and the GI50 (RXF 393) was 0.675 µM (active). For the same compound, the GI50 (MOLT-4) was 0.0826 µM (active), the GI50 (SNB-19) was 8.22 µM (inactive) and the GI50 (SN12C) was 0.32 µM (active). For the same compound, the GI50 (HCC 2998) was 2.94 µM (inactive), the GI50 (UACC-257) was 4.14 µM (inactive) and the GI50 (A498) was 11.2 µM (inactive). For the same compound, the GI50 (CAKI-1) was 0.0254 µM (active), the GI50 (Malme-3M) was 0.0984 µM (active) and the GI50 (SW-620) was 0.0358 µM (active). The GI50 (NCI/ADR-RES) was 0.0624 µM (active), the GI50 (IGROV-1) was 0.0547 µM (active) and the GI50 (BT-549) was 6.55 µM (inactive). The GI50 (NCI-H522) was < 0.01 µM (active), the GI50 (UACC-62) was 0.0773 µM (active) and the GI50 (SR) was < 0.01 µM (active). For the same compound, the GI50 (DU-145) was 0.429 µM (active), the GI50 (A549) was 0.146 µM (active) and the GI50 (HCT-15) was < 0.0254 µM. For the same compound, the GI50 (TK-10) was 20.6 µM (inactive), the GI50 (OVCAR-4) was 2.16 µM (inactive) and the GI50 (SK-MEL-5) was < 0.0157 µM (active). The GI50 (COLO 205) was 4.42 µM (inactive), the GI50 (SF-539) was 0.0478 µM (active) and the GI50 (HT-29) was 1.65 µM (inactive). The GI50 (U-251) was 0.4 µM (active), the GI50 (OVCAR-8) was 0.266 µM (active) and the GI50 (UO-31) was 0.0403 µM (active). For the same compound, the GI50 (MCF7) was 0.0184 µM (active), the GI50 (SF-268) was 0.0685 µM (active) and the GI50 (OVCAR-3) was 0.022 µM (active). The GI50 (PC-3) was 0.0973 µM (active), the GI50 (HOP-62) was 0.475 µM (active) and the GI50 (Hs-578T) was 0.0953 µM (active). For the same compound, the GI50 (K562) was < 0.01 µM (active), the GI50 (LOX IMVI) was < 0.0229 µM (active) and the GI50 (OVCAR-5) was 10 µM (inactive). The GI50 (SF-295) was 0.0775 µM (active), the GI50 (MDA-N) was < 0.01 µM (active) and the GI50 (EKVX) was 1.85 µM (inactive). For the same compound, the GI50 (M14) was 0.0568 µM (active), the GI50 (HL-60) was < 0.01 µM (active) and the GI50 (HCT-116) was 0.0269 µM (active). The GI50 (KM12) was < 0.01 µM (active), the GI50 (SK-MEL-28) was 13 µM (inactive) and the GI50 (HOP-92) was 13.7 µM (inactive). For the same compound, the GI50 (NCI-H226) was 0.252 µM (active), the GI50 (RPMI-8226) was 0.103 µM (active) and the GI50 (SK-OV-3) was 0.208 µM (active). The GI50 (NCI-H460) was < 0.0189 µM (active), the GI50 (MDA-MB-435) was < 0.01 µM (active) and the GI50 (SNB-75) was 0.0718 µM (active).

In the case of `O=C1Nc2ccccc2/C1=C/c1ccccc1`, the GI50 (CCRF-CEM) is reported as 17.8 µM (inactive), the GI50 (786-0) is reported as 13.8 µM (inactive) and the GI50 (MDA-MB-231) is reported as 17.8 µM (inactive). For the same compound, the GI50 (ACHN) was 30.4 µM (inactive), the GI50 (T47D) was 12.3 µM (inactive) and the GI50 (RXF 393) was 9.27 µM (inactive). The GI50 (MOLT-4) was 15.6 µM (inactive), the GI50 (SNB-19) was 14.5 µM (inactive) and the GI50 (SN12C) was 14.1 µM (inactive). For the same compound, the GI50 (HCC 2998) was 15.8 µM (inactive), the GI50 (UACC-257) was 15 µM (inactive) and the GI50 (SK-MEL-2) was 14.3 µM (inactive). The GI50 (A498) was 13.5 µM (inactive), the GI50 (CAKI-1) was 29.2 µM (inactive) and the GI50 (NCI-H23) was 18.1 µM (inactive). For the same compound, the GI50 (SW-620) was 25.2 µM (inactive), the GI50 (NCI/ADR-RES) was 22.8 µM (inactive) and the GI50 (IGROV-1) was 11.7 µM (inactive). The GI50 (BT-549) was 16.4 µM (inactive), the GI50 (NCI-H522) was 15.8 µM (inactive) and the GI50 (UACC-62) was 13.9 µM (inactive). For the same compound, the GI50 (SR) was 14.4 µM (inactive), the GI50 (DU-145) was 13.8 µM (inactive) and the GI50 (A549) was 25.2 µM (inactive). For the same compound, the GI50 (HCT-15) was 14 µM, the GI50 (TK-10) was 21.7 µM (inactive) and the GI50 (OVCAR-4) was 23.6 µM (inactive). For the same compound, the GI50 (SK-MEL-5) was 13.3 µM (inactive), the GI50 (COLO 205) was 16.8 µM (inactive) and the GI50 (SF-539) was 15.4 µM (inactive). For the same compound, the GI50 (HT-29) was 22.6 µM (inactive), the GI50 (U-251) was 15 µM (inactive) and the GI50 (OVCAR-8) was 18.8 µM (inactive). The GI50 (UO-31) was 12.6 µM (inactive), the GI50 (MCF7) was 3.36 µM (inactive) and the GI50 (SF-268) was 15.6 µM (inactive). For the same compound, the GI50 (OVCAR-3) was 16.7 µM (inactive), the GI50 (PC-3) was 14.6 µM (inactive) and the GI50 (HOP-62) was 18 µM (inactive). For the same compound, the GI50 (Hs-578T) was 24.1 µM (inactive), the GI50 (K562) was 27.7 µM (inactive) and the GI50 (LOX IMVI) was 13.2 µM (inactive). The GI50 (OVCAR-5) was 18.5 µM (inactive), the GI50 (SF-295) was 17.5 µM (inactive) and the GI50 (MDA-N) was 17.7 µM (inactive). For the same compound, the GI50 (EKVX) was 13.8 µM (inactive), the GI50 (M14) was 16.7 µM (inactive) and the GI50 (HL-60) was 14.6 µM (inactive). For the same compound, the GI50 (HCT-116) was 14 µM (inactive), the GI50 (KM12) was 15.3 µM (inactive) and the GI50 (SK-MEL-28) was 20.8 µM (inactive). For the same compound, the GI50 (HOP-92) was 11 µM (inactive), the GI50 (NCI-H226) was 17.1 µM (inactive) and the GI50 (RPMI-8226) was 18.2 µM (inactive). The GI50 (SK-OV-3) was 28.8 µM (inactive), the GI50 (NCI-H460) was 15.5 µM (inactive) and the GI50 (MDA-MB-435) was 15.8 µM (inactive). For the same compound, the GI50 (SNB-75) was 12.9 µM (inactive).

In the case of `O=C1CSC2(CC(/C=C/c3cccc([N+](=O)[O-])c3)=NN2c2cccc(S(=O)(=O)O)c2)N1c1nc2ccccc2s1` (stereo not given), the GI50 (CCRF-CEM) is reported as 20.7 µM (inactive), the GI50 (786-0) is reported as 18 µM (inactive) and the GI50 (MDA-MB-231) is reported as 19.1 µM (inactive). For the same compound, the GI50 (ACHN) was 25.8 µM (inactive), the GI50 (T47D) was 24.6 µM (inactive) and the GI50 (RXF 393) was 34.2 µM (inactive). For the same compound, the GI50 (MOLT-4) was 22.4 µM (inactive), the GI50 (SNB-19) was 21 µM (inactive) and the GI50 (SN12C) was 22.4 µM (inactive). For the same compound, the GI50 (HCC 2998) was 35.6 µM (inactive), the GI50 (UACC-257) was 38.9 µM (inactive) and the GI50 (SK-MEL-2) was 22.9 µM (inactive). For the same compound, the GI50 (A498) was 20.4 µM (inactive), the GI50 (CAKI-1) was 49.7 µM (inactive) and the GI50 (Malme-3M) was 51.3 µM (inactive). For the same compound, the GI50 (NCI-H23) was 16.7 µM (inactive), the GI50 (SW-620) was 26.8 µM (inactive) and the GI50 (NCI/ADR-RES) was 22.5 µM (inactive). For the same compound, the GI50 (IGROV-1) was 13.9 µM (inactive), the GI50 (BT-549) was 16.3 µM (inactive) and the GI50 (NCI-H522) was 18.3 µM (inactive). For the same compound, the GI50 (UACC-62) was 19.1 µM (inactive), the GI50 (SR) was 19.6 µM (inactive) and the GI50 (DU-145) was 19.6 µM (inactive). For the same compound, the GI50 (A549) was 25.8 µM (inactive), the GI50 (HCT-15) was 18.1 µM and the GI50 (TK-10) was 20 µM (inactive). For the same compound, the GI50 (OVCAR-4) was 25.2 µM (inactive), the GI50 (SK-MEL-5) was 28.1 µM (inactive) and the GI50 (COLO 205) was 50.8 µM (inactive). For the same compound, the GI50 (SF-539) was 29.6 µM (inactive), the GI50 (HT-29) was 31.4 µM (inactive) and the GI50 (U-251) was 17.6 µM (inactive). For the same compound, the GI50 (OVCAR-8) was 13.8 µM (inactive), the GI50 (UO-31) was 19.6 µM (inactive) and the GI50 (MCF7) was 17.6 µM (inactive). For the same compound, the GI50 (SF-268) was 26 µM (inactive), the GI50 (PC-3) was 21.4 µM (inactive) and the GI50 (Hs-578T) was 55.3 µM (inactive). For the same compound, the GI50 (K562) was 28.6 µM (inactive), the GI50 (LOX IMVI) was 13.6 µM (inactive) and the GI50 (OVCAR-5) was 23.4 µM (inactive). The GI50 (MDA-N) was 25.1 µM (inactive), the GI50 (EKVX) was 44.8 µM (inactive) and the GI50 (M14) was 30.7 µM (inactive). The GI50 (HL-60) was 28.1 µM (inactive), the GI50 (HCT-116) was 32.6 µM (inactive) and the GI50 (KM12) was 22 µM (inactive). For the same compound, the GI50 (SK-MEL-28) was 57 µM (inactive), the GI50 (HOP-92) was 9.46 µM (inactive) and the GI50 (NCI-H226) was 25.4 µM (inactive). For the same compound, the GI50 (RPMI-8226) was 17.4 µM (inactive), the GI50 (NCI-H460) was 21.2 µM (inactive) and the GI50 (MDA-MB-435) was 18.5 µM (inactive). The GI50 (SNB-75) was 20 µM (inactive).
